The record followed here is patent publication US20050234029A1, “Compounds” (priority 2002, published 2005).

By IC50 is commonly meant the concentration needed to halve the response being measured. Broadly, the melting point is the temperature, or range, at which the solid turns liquid.

For the first data set, the system named is TGF-β signalling (PAI-1 promoter-luciferase in HepG2 cells). Put plainly: Cellular transcriptional assay (PAI-1 promoter luciferase reporter). Type of data set: cell-based. The following applies: Homo sapiens, PAI-1 promoter firefly luciferase, rhTGFβ-1 1 ng/mL. The procedure: Assay 1 (Cellular Transcriptional Assay)
These plates were placed in a cell incubator.
Columns 11 and 12 were employed as controls.
(In general: Reporter assays use an easily measured gene product as a stand-in for the process of interest.)
Compound `Cc1cccc(-c2nc3ccccn3c2-c2ccnc(-c3ccc(S(C)(=O)=O)cc3)c2)n1` [Example 6, 3-[2-(4-Methanesulfonyl-phenyl)-pyridin-4-yl]-2-(6-methyl-pyridin-2-yl)-imidazo[1,2-a]pyridine] showed an IC50 of 125 nM. Compound `Cc1ccn2c(-c3ccnc(-c4ccc(OCCN5CCCC5)cc4)c3)c(-c3cccc(C)n3)nc2c1` [Example 38, 7-Methyl-2-(6-methyl-pyridin-2-yl)-3-{2-[4-(2-(pyrrolidin-1-yl)ethoxy)phenyl]-pyridin-4-yl}-imidazo[1,2-a]pyridine] returned a concentration for half-maximal inhibition (IC50) of 127 nM.

In a further data set the target is T1, recombinant GST-ALK5 (residues 198-503) (Homo sapiens, UniProt P36897).
T1 construct: assays using recombinant GST-ALK5 (residues 198-503)
T1 sequence (P36897 198-503): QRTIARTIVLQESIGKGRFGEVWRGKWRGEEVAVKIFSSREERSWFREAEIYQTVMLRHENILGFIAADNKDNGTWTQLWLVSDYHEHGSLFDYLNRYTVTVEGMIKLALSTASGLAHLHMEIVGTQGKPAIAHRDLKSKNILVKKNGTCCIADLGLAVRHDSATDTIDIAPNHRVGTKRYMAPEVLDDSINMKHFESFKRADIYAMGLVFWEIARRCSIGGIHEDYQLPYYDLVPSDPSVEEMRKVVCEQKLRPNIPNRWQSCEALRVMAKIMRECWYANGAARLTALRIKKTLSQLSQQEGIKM
The data set is described as follows: Alk5 fluorescence polarization assay. The following applies: rhodamine green-labelled ligand 1 nM, ALK5 10 nM, read-out: ALK5 receptor modulator activity (IC50). It is filed as binding. The procedure: Assay 2 (Alk5 Fluorescence Polarization Assay)
Kinase inhibitor compounds conjugated to fluorophores, can be used as fluorescent ligands to monitor ATP competitive binding of other compounds to a given kinase. The increase in depolarization of plane polarized light, caused by release of the bound ligand into solution, is measured as a polarization/anisotropy value. This protocol details the use of a rhodamine green-labelled ligand for assays using recombinant GST-ALK5 (residues 198-503).
Assay buffer components: 62.5 mM Hepes pH 7.5 (Sigma H-4034), 1 mM DTT (Sigma D-0632), 12.5 mM MgCl2 (Sigma M-9272), 1.25 mM CHAPS (Sigma C-3023). […]
ALK5 was added to assay buffer containing the above components and 1 nM of the rhodamine green-labelled ligand so that the final ALK5 concentration was 10 nM based on active site titration of the enzyme. […] The plates were read immediately on a LJL Acquest fluorescence reader (Molecular Devices, serial number AQ1048) with excitation, emission, and dichroic filters of 485 nm, 530 nm, and 505 nm, respectively. The fluorescence polarization for each well was calculated by the Acquest reader and then imported into curve fitting software for construction of concentration response curves. The normalized response was determined relative to the high controls (1 μl DMSO in column 12, rows A-D) and the low controls (1 μl of control compound in column 12, rows E-H). […]
(Fluorescence polarisation rises when a labelled molecule tumbles more slowly, as on binding a larger partner.)
In the case of `Cc1cccc(-c2nc3ccccn3c2-c2ccnc(-c3ccc(S(C)(=O)=O)cc3)c2)n1` [Example 6, 3-[2-(4-Methanesulfonyl-phenyl)-pyridin-4-yl]-2-(6-methyl-pyridin-2-yl)-imidazo[1,2-a]pyridine], the concentration for half-maximal inhibition (IC50) worked out at 11 nM.

As for `Cc1ccn2c(-c3ccnc(-c4ccc(OCCN5CCCC5)cc4)c3)c(-c3cccc(C)n3)nc2c1` [Example 38, 7-Methyl-2-(6-methyl-pyridin-2-yl)-3-{2-[4-(2-(pyrrolidin-1-yl)ethoxy)phenyl]-pyridin-4-yl}-imidazo[1,2-a]pyridine], the half-inhibitory concentration (IC50) amounted to 15 nM.

System in the next data set: not given
Assay: not given
Details: not given
On to `COc1ccc(-c2cc(-c3c(-c4cccc(C)n4)nc4ccccn34)ccn2)cc1` [Example 2, 3-[2-(4-methoxy-phenyl)-pyridin-4-yl]-2-(6-methyl-pyridin-2-yl)-imidazo[1,2-a]pyridine], for which the melting point came to 174 °C.

The compound `Cc1cccc(-c2nc3ccccn3c2-c2ccnc(-c3ccc(OC(F)(F)F)cc3)c2)n1` [Example 3, 2-(6-methyl-pyridin-2-yl)-3-[2-(4-trifluoromethoxy-phenyl)-pyridin-4-yl]-imidazo[1,2-a]pyridine] showed a melting point of 120 °C. Still for that read-out and setting: in the case of `Cc1cccc(-c2nc3ccccn3c2-c2ccnc(-c3ccc(C#N)cc3)c2)n1` [Example 4] it was 214 °C; in that of `CS(=O)(=O)c1ccc(-c2cc(-c3c(-c4ccccn4)nc4ccccn34)ccn2)cc1` [Example 5, 3-[2-(4-Methanesulfonyl-phenyl)-pyridin-4-yl]-2-pyridin-2-yl-imidazo[1,2-a]pyridine], 242 to 244 °C; in that of `CC(=O)c1ccc(-c2cc(-c3c(-c4ccccn4)nc4ccccn34)ccn2)cc1` [Example 8, 3-[2-(4-(Acetyl)phenyl)-pyridin-4-yl]-2-(pyridin-2-yl)-imidazo[1,2-a]pyridine], 214 °C. Still for that read-out and setting: in the case of `CC(=O)Nc1ccc(-c2cc(-c3c(-c4ccccn4)nc4ccccn34)ccn2)cc1` [Example 9, 3-[2-(4-(Methylcarbonylamino)phenyl)-pyridin-4-yl]-2-pyridin-2-yl-imidazo[1,2-a]pyridine] it was 133 °C. Same read-out and setting: in the case of `CC(=O)Nc1ccc(-c2cc(-c3c(-c4cccc(C)n4)nc4ccccn34)ccn2)cc1` [Example 10, 3-[2-(4-(methylcarbonylamino)phenyl)-pyridin-4-yl]-2-(6-methyl-pyridin-2-yl)-imidazo[1,2-a]pyridine] it was 257 °C; in that of `CS(=O)(=O)Nc1ccc(-c2cc(-c3c(-c4cccc(Cl)c4)nc4ccccn34)ccn2)cc1` [Example 11, 2-(3-chloro-phenyl)-3-[2-(4-(methanesulfonylamino)phenyl)-pyridin-4-yl]-imidazo[1,2-a]pyridine], 60 °C; in that of `c1ccc(-c2nc3ccccn3c2-c2ccnc(-c3ccc(CN4CCOCC4)cc3)c2)nc1` [Example 17, 3-[2-(4-(Morpholin-4-yl-methyl)-phenyl)-pyridin-4-yl]-2-pyridin-2-yl-imidazo[1,2-a]pyridine], 80 °C (dec.). `Fc1ccc(-c2nc3ccccn3c2-c2ccnc(-c3ccc(CN4CCOCC4)cc3)c2)cc1Cl` [Example 18, 2-(3-Chloro-4-fluoro-phenyl)-3-[2-(4-(morpholin-4-yl-methyl)phenyl)-pyridin-4-yl]-imidazo[1,2-a]pyridine] displayed a melting point of 189 °C. For `Fc1ccc(-c2nc3ccccn3c2-c2ccnc(-c3ccc(CN4CCCC4)cc3)c2)cc1F` [Example 19, 2-(3,4-Difluoro-phenyl)-3-[2-(4-(pyrrolidin-1-yl-methyl)phenyl)-pyridin-4-yl]-imidazo[1,2-a]pyridine], the melting point amounted to 155 °C. In the case of `Fc1ccc(-c2nc3ccccn3c2-c2ccnc(-c3ccc(CN4CCOCC4)cc3)c2)cc1F` [Example 20, 2-(3,4-Difluoro-phenyl)-3-[2-(4-(morpholin-1-yl-methyl)phenyl)-pyridin-4-yl]-imidazo[1,2-a]pyridine], the melting point is 205 °C. For the compound `Cc1cccc(-c2nc3ccc(Cl)cn3c2-c2ccnc(-c3ccc(CN4CCOCC4)cc3)c2)n1` [Example 21, 6-Chloro-2-(6-methyl-pyridin-2-yl)-3-[2-(4-(morpholin-4-yl-methyl)phenyl)-pyridin-4-yl]-imidazo[1,2-a]pyridine], the melting point was found to be 157 °C. The same measure, in the same setting: in the case of `Cc1ccn2c(-c3ccnc(-c4ccc(CN5CCOCC5)cc4)c3)c(-c3cccc(C)n3)nc2c1` [Example 22, 7-Methyl-2-(6-methyl-pyridin-2-yl)-3-[2-(4-(morpholin-4-yl-methyl)phenyl)-pyridin-4-yl]-imidazo[1,2-a]pyridine] it was 188 °C.

Compound `Cc1cccc(-c2nc3ccc(Cl)cn3c2-c2ccnc(-c3ccc(CN4CCCC4)cc3)c2)n1` [Example 23, 6-Chloro-2-(6-methyl-pyridin-2-yl)-3-[2-(4-(pyrrolidin-1-yl-methyl)phenyl)-pyridin-4-yl]-imidazo[1,2-a]pyridine] yielded a melting point of 134 °C.

For `Cc1cccc(-c2nc3c(C)cccn3c2-c2ccnc(-c3ccc(CN4CCOCC4)cc3)c2)n1` [Example 24, 8-Methyl-2-(6-methyl-pyridin-2-yl)-3-{2-[4-((morpholin-4-yl)methyl)phenyl]-pyridin-4-yl}-imidazo[1,2-a]pyridine], the melting point was determined as 122 °C. The same measure, in the same setting: the value for `O=C(NC1CCOCC1)c1ccc(-c2cc(-c3c(-c4ccccn4)nc4ccccn34)ccn2)cc1` [Example 26, 3-[2-(4-((Tetrahydropyran-4-yl)aminocarbonyl)phenyl)-pyridin-4-yl]-2-pyridin-2-yl-imidazo[1,2-a]pyridine] was 179 °C; that for `Cc1cccc(-c2nc3ccccn3c2-c2ccnc(-c3ccc(C(=O)NC4CCOCC4)cc3)c2)n1` [Example 27, 3-[2-(4-((tetrahydropyran-4-yl)aminocarbonyl)phenyl)-pyridin-4-yl]-2-(6-methyl-pyridin-2-yl)-imidazo[1,2-a]pyridine] was 128 °C; that for `CCN1CCN(C(=O)c2ccc(-c3cc(-c4c(-c5cccc(C)n5)nc5c(C)cccn45)ccn3)cc2)CC1` [Example 32, 8-Methyl-2-(6-methyl-pyridin-2-yl)-3-{2-[4-((1-ethyl-piperazin-4-yl)carbonyl)phenyl]-pyridin-4-yl}-imidazo[1,2-a]pyridine] was 212 °C. With `O=C(c1ccc(-c2cc(-c3c(-c4cccc(F)n4)nc4ccccn34)ccn2)cc1)N1CCOCC1` [Example 33, 2-(6-Fluoro-pyridin-2-yl)-3-{2-[4-((morpholiny-4-yl)carbonyl)phenyl]-pyridin-4-yl}-imidazo[1,2-a]pyridine], the melting point worked out at 191 °C. For the compound `Clc1cccc(-c2nc3ccccn3c2-c2ccnc(-c3ccc(OCCN4CCCC4)cc3)c2)c1` [Example 37, 2-(3-Chloro-phenyl)-3-{2-[4-(2-(pyrrolidin-1-yl)ethoxy)phenyl]-pyridin-4-yl}-imidazo[1,2-a]pyridine], the melting point is 298 °C.

Compound `Cc1ccn2c(-c3ccnc(-c4ccc(OCCN5CCCC5)cc4)c3)c(-c3cccc(C)n3)nc2c1` [Example 38, 7-Methyl-2-(6-methyl-pyridin-2-yl)-3-{2-[4-(2-(pyrrolidin-1-yl)ethoxy)phenyl]-pyridin-4-yl}-imidazo[1,2-a]pyridine] displayed a melting point of 163 °C.
